Tests used:
[1] = target: T1, recombinant human transglutaminase 2 (Homo sapiens, UniProt P21980); assay: Transglutaminase assay (DCC-assay): incorporation of dansylcadaverine into dimethylcasein; format: biochemical; conditions: recombinant human TG2 10 nM; dansylcadaverine incorporation into dimethylcasein; read-out: IC50 TG2
T1 construct: purchased Zedira T022
T1 sequence (P21980 1-687): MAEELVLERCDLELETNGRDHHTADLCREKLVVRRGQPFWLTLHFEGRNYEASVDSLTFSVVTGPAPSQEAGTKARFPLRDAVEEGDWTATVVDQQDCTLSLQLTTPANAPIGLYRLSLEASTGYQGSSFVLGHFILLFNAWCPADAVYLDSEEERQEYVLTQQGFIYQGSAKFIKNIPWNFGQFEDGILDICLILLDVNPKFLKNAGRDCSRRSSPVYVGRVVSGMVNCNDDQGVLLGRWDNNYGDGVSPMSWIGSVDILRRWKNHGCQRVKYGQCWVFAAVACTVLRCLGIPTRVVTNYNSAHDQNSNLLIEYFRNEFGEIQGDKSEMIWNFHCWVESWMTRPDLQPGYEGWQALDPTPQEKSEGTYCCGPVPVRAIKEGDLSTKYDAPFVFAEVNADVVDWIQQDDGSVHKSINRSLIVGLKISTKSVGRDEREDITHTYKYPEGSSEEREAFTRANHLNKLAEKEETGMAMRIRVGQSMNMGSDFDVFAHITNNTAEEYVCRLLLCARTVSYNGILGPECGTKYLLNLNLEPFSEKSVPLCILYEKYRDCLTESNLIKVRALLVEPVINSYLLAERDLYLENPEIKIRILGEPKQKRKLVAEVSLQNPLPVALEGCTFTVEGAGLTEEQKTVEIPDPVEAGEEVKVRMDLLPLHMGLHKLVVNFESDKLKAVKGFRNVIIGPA
In short: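 IC50 is the inhibitor level that blocks 50% of initial activity. Activity is the fluorescence slope (λex 330, λem 500 nm) between 20 and 30 min of a 37 °C run, relative to a 2% DMSO control. The enzyme is recombinant human tissue transglutaminase, 10 nM final, tested against a 1:2 inhibitor dilution series in a pH 8.0 mix with 10 mM CaCl2, 10 mM glutathione, 16.7 µM dansylcadaverine and 4 µM N,N-dimethylcasein.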

[2] = Caco-2 permeability assay (CacoReady kit); format: in vitro ADME; conditions: human, Caco-2, Caco-2 barrier, CacoReady kit; above 1×10^−6 cm/s classified as permeable
In short: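 Intestinal permeability modelled with kit-supplied Caco-2 barriers, run as the maker specifies; each compound reported as Papp.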

[3] = logD by shake flask method (octanol / PBS pH 7.4, HPLC); format: physicochemical; conditions: octanol / PBS pH 7.4, shake flask
In short: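 LogD obtained by HPLC measurement of how the compound distributes between PBS (pH 7.4) and octanol in a shake-flask experiment.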

IC50 [1]	Papp [2]	logD [3]	Compound
40 to 400 nM	1 to 10 ×10⁻⁶ cm/s	3 to 5	CNC(=O)C(=O)CC[C@H](NC(=O)c1oc2ccccc2c1C)C(=O)Nc1cccn(CC23CC4CC(CC(C4)C2)C3)c1=O [II-107, (S)-N1-(1-(1-adamantylmethyl)-2-oxo-1,2-dihydropyridin-3-yl)-N6-methyl-2-(3-methylbenzofuran-2-carboxamido)-5-oxohexanediamide]
40 to 400 nM	< 1 ×10⁻⁶ cm/s	1 to 3	CNC(=O)C(=O)CC[C@H](NC(=O)c1oc2ccccc2c1C)C(=O)Nc1cccn(CC23CC4CC(CC(O)(C4)C2)C3)c1=O [II-108, (2S)-N1-(1-((3-hydroxy-1-adamantyl)methyl)-2-oxo-1,2-dihydropyridin-3-yl)-N6-methyl-2-(3-methylbenzofuran-2-carboxamido)-5-oxohexanediamide]
40 to 400 nM	1 to 10 ×10⁻⁶ cm/s	3 to 5	CNC(=O)C(=O)CC[C@H](NC(=O)c1oc2ccccc2c1C)C(=O)Nc1cccn(CC23CC4CC(CC(Br)(C4)C2)C3)c1=O [II-109, (2S)-N1-(1-((3-bromo-1-adamantyl)methyl)-2-oxo-1,2-dihydropyridin-3-yl)-N6-methyl-2-(3-methylbenzofuran-2-carboxamido)-5-oxohexanediamide]
40 to 400 nM	1 to 10 ×10⁻⁶ cm/s	3 to 5	CNC(=O)C(=O)CC[C@H](NC(=O)c1oc2ccccc2c1C)C(=O)Nc1cccn(CC2C3CC4CC(C3)CC2C4)c1=O (stereo partly drawn) [II-110, (S)-N1-(1-(2-adamantylmethyl)-2-oxo-1,2-dihydropyridin-3-yl)-N6-methyl-2-(3-methylbenzofuran-2-carboxamido)-5-oxohexanediamide]
< 40 nM	< 1 ×10⁻⁶ cm/s	1 to 3	CNC(=O)C(=O)CC[C@H](NC(=O)c1cccnc1)C(=O)Nc1cccn(CC(=O)NC2C3CC4CC(C3)CC2C4)c1=O (stereo partly drawn) [II-111, (S)-N1-(1-(2-(2-adamantylamino)-2-oxoethyl)-2-oxo-1,2-dihydropyridin-3-yl)-N6-methyl-2-(nicotinamido)-5-oxohexanediamide]
< 40 nM	< 1 ×10⁻⁶ cm/s	1 to 3	CNC(=O)C(=O)CC[C@H](NC(=O)c1ccncc1)C(=O)Nc1cccn(CC(=O)NC2C3CC4CC(C3)CC2C4)c1=O (stereo partly drawn) [II-112, (S)-2-(isonicotinamido)-N1-(1-(2-(2-adamantylamino)-2-oxoethyl)-2-oxo-1,2-dihydropyridin-3-yl)-N6-methyl-5-oxohexanediamide]
40 to 400 nM	< 1 ×10⁻⁶ cm/s	< 1	CNC(=O)C(=O)CC[C@H](NC(=O)c1ccnnc1)C(=O)Nc1cccn(CC(=O)NC2C3CC4CC(C3)CC2C4)c1=O (stereo partly drawn) [II-113, (S)-N1-(1-(2-(2-adamantylamino)-2-oxoethyl)-2-oxo-1,2-dihydropyridin-3-yl)-N6-methyl-5-oxo-2-(pyridazine-4-carboxamido)hexanediamide]
40 to 400 nM	< 1 ×10⁻⁶ cm/s	< 1	CNC(=O)C(=O)CC[C@H](NC(=O)c1cccnn1)C(=O)Nc1cccn(CC(=O)NC2C3CC4CC(C3)CC2C4)c1=O (stereo partly drawn) [II-114, (S)-N1-(1-(2-(2-adamantylamino)-2-oxoethyl)-2-oxo-1,2-dihydropyridin-3-yl)-N6-methyl-5-oxo-2-(pyridazine-3-carboxamido)hexanediamide]
40 to 400 nM	1 to 10 ×10⁻⁶ cm/s	3 to 5	Cc1c(C(=O)N[C@@H](CCC(=O)C(=O)NC2CC2)C(=O)Nc2cccn(CC(=O)NC3C4CC5CC(C4)CC3C5)c2=O)oc2ccccc12 (stereo partly drawn) [II-115, (S)-N1-cyclopropyl-N6-(1-(2-(2-adamantylamino)-2-oxoethyl)-2-oxo-1,2-dihydropyridin-3-yl)-5-(3-methylbenzofuran-2-carboxamido)-2-oxohexanediamide]
40 to 400 nM	1 to 10 ×10⁻⁶ cm/s	3 to 5	CCCCCNC(=O)C(=O)CC[C@H](NC(=O)c1oc2ccccc2c1C)C(=O)Nc1cccn(CC(=O)NC2C3CC4CC(C3)CC2C4)c1=O (stereo partly drawn) [II-116, (S)-N1-(1-(2-(2-adamantylamino)-2-oxoethyl)-2-oxo-1,2-dihydropyridin-3-yl)-2-(3-methylbenzofuran-2-carboxamido)-5-oxo-N6-pentylhexanediamide]
40 to 400 nM	1 to 10 ×10⁻⁶ cm/s	3 to 5	C=CCNC(=O)C(=O)CC[C@H](NC(=O)c1oc2ccccc2c1C)C(=O)Nc1cccn(CC(=O)NC2C3CC4CC(C3)CC2C4)c1=O (stereo partly drawn) [II-117, (S)-N1-allyl-N6-(1-(2-(2-adamantylamino)-2-oxoethyl)-2-oxo-1,2-dihydropyridin-3-yl)-5-(3-methylbenzofuran-2-carboxamido)-2-oxohexanediamide]
< 40 nM	1 to 10 ×10⁻⁶ cm/s	1 to 3	Cc1c(C(=O)N[C@@H](CCC(=O)C(N)=O)C(=O)Nc2cccn(CC(=O)NC3C4CC5CC(C4)CC3C5)c2=O)oc2ccccc12 (stereo partly drawn) [II-118, (S)-N1-(1-(2-(2-adamantylamino)-2-oxoethyl)-2-oxo-1,2-dihydropyridin-3-yl)-2-(3-methylbenzofuran-2-carboxamido)-5-oxohexanediamide]
40 to 400 nM	1 to 10 ×10⁻⁶ cm/s	3 to 5	C=CCNC(=O)C(=O)CC[C@H](NC(=O)c1cc2ccccc2o1)C(=O)Nc1cccn(CC(=O)NC2C3CC4CC(C3)CC2C4)c1=O (stereo partly drawn) [II-119, (S)-N1-allyl-5-(benzofuran-2-carboxamido)-N6-(1-(2-(2-adamantylamino)-2-oxoethyl)-2-oxo-1,2-dihydropyridin-3-yl)-2-oxohexanediamide]
40 to 400 nM	1 to 10 ×10⁻⁶ cm/s	3 to 5	CC(C)NC(=O)C(=O)CC[C@H](NC(=O)c1cc2ccccc2o1)C(=O)Nc1cccn(CC(=O)NC2C3CC4CC(C3)CC2C4)c1=O (stereo partly drawn) [II-120, (S)-2-(benzofuran-2-carboxamido)-N6-isopropyl-N1-(1-(2-(2-adamantylamino)-2-oxoethyl)-2-oxo-1,2-dihydropyridin-3-yl)-5-oxohexanediamide]
40 to 400 nM	1 to 10 ×10⁻⁶ cm/s	3 to 5	O=C(Cn1cccc(NC(=O)[C@H](CCC(=O)C(=O)NC2CC2)NC(=O)c2cc3ccccc3o2)c1=O)NC1C2CC3CC(C2)CC1C3 (stereo partly drawn) [II-121, (S)-2-(benzofuran-2-carboxamido)-N6-cyclopropyl-N1-(1-(2-(2-adamantylamino)-2-oxoethyl)-2-oxo-1,2-dihydropyridin-3-yl)-5-oxohexanediamide]
400 to 2500 nM	1 to 10 ×10⁻⁶ cm/s	3 to 5	O=C(Cn1cccc(NC(=O)[C@H](CCC(=O)C(=O)Nc2ccccc2)NC(=O)c2cc3ccccc3o2)c1=O)NC1C2CC3CC(C2)CC1C3 (stereo partly drawn) [II-122, (S)-2-(benzofuran-2-carboxamido)-N1-(1-(2-(2-adamantylamino)-2-oxoethyl)-2-oxo-1,2-dihydropyridin-3-yl)-5-oxo-N6-phenylhexanediamide]
400 to 2500 nM	1 to 10 ×10⁻⁶ cm/s	3 to 5	O=C(Cn1cccc(NC(=O)[C@H](CCC(=O)C(=O)NCc2ccccc2)NC(=O)c2cc3ccccc3o2)c1=O)NC1C2CC3CC(C2)CC1C3 (stereo partly drawn) [II-123, (S)-2-(benzofuran-2-carboxamido)-N6-benzyl-N1-(1-(2-(2-adamantylamino)-2-oxoethyl)-2-oxo-1,2-dihydropyridin-3-yl)-5-oxohexanediamide]

Reference: US20240383856A1 (Zedira GmbH, priority 2021, published 2024)
